Laboratory results: patent US20070258961A1, “Cholesterol efflux and uses thereof” (priority 2002, published 2007)

Key:
[1] = tested on: CYP27; test: CYP27 expression in transfected macrophages with demethylation agent; format: cell-based, mouse; settings: 0.5 μM, CMV promoter silenced by methylation
Protocol: Red, in D, is the mitochondrial marker dye, green in C, is CYP27.
Macrophages were cultured and transfected the same as for the CHOP cells in Example 1 except that after transfection, 0.5 μM 5-azacytidine was included in all further incubations. […] Panels A and B in FIG. 11 are actually transfected cells, but not treated with 5-azacytidine.

[2] = tested on: CYP27; settings: promoter studies; cited from earlier work

Structure (SMILES) | effect on CYP27 expression in transfected macrophages [1] | regulation of CYP27 expression [2]
Nc1ncn([C@@H]2O[C@H](CO)[C@@H](O)[C@H]2O)c(=O)n1 [5-azacytidine] | expressed CYP27 | –
C[C@H](CCC(=O)O)[C@H]1CC[C@H]2[C@@H]3[C@H](O)C[C@@H]4C[C@H](O)CC[C@]4(C)[C@H]3C[C@H](O)[C@]12C [cholic acid] | – | downregulated
